In brackets after ≈: the same amount, converted by molar mass. Read-outs that look alike come from different tables or passages of the source.
Legend:
[1] = tested on: advanced glycation end products (AGEs); assay: Glycation inhibition assay; format: biochemical; settings: Inactive at >100 μM
[2] = tested on: Streptococcus pyogenes ATCC, 19615; assay: Antimicrobial MIC, 2-fold serial dilution; settings: for MIC (μg/mL) SP: Gram-positive, Streptococcus pyogenes (ATCC, 19615), Inactive at >128 μg/mL
[3] = tested on: Escherichia coli TISTR 780; assay: Antimicrobial MIC, 2-fold serial dilution; settings: Gram-negative; Escherichia coli (TISTR 780); Inactive at >128 μg/mL
[4] = tested on: Salmonella typhimurium DMST 562; assay: Antimicrobial MIC, 2-fold serial dilution; settings: for MIC (μg/mL) STR: Gram-negative, Salmonella typhimurium (DMST 562), Inactive at >128 μg/mL
[5] = tested on: RAW 264.7 cells; assay: Nitric oxide production inhibition assay; format: cell-based
[6] = tested on: 3T3-L1 adipocyte cells; assay: Glucose consumption assay; format: cell-based; settings: for Glucose consumption (IC50, μM): induction of glucose consumption, 3T3-L1 adipocyte cells, Inactive at >100 μM; for EC50: Mus musculus, 3T3-L1, read-out: Glucose consumption (IC50, μM)
[7] = tested on: methicillin resistant Staphylococcus aureus NPRC 001R; assay: Antimicrobial MIC, 2-fold serial dilution; settings: for MIC (μg/mL) MRSA: Gram-positive, Methicillin Resistant Staphylococcus aureus (NPRC 001R), Inactive at >128 μg/mL
[8] = tested on: Enterococcus faecalis ATCC 29212; assay: Antimicrobial MIC, 2-fold serial dilution; settings: for MIC (μg/mL) EF: Gram-positive, Enterococcus faecalis (ATCC 29212), Inactive at >128 μg/mL
[9] = tested on: Staphylococcus aureus ATCC 25923; assay: Antimicrobial MIC, 2-fold serial dilution; settings: for MIC (μg/mL) SA: Gram-positive, Staphylococcus aureus (ATCC 25923), Inactive at >128 μg/mL
[10] = tested on: Candida albicans ATCC 10231; assay: Antimicrobial MIC, 2-fold serial dilution; settings: Fungi; Candida albicans (ATCC 10231); Inactive at >128 μg/mL
[11] = tested on: Pseudomonas aeruginosa ATCC 10145; assay: Antimicrobial MIC, 2-fold serial dilution; settings: for MIC: Pseudomonas aeruginosa, ATCC10145, read-out: MIC (μg/mL) PA
[12] = biological target: α-amylase (Sus scrofa, UniProt P00690); format: biochemical; settings: Inactive at >100 μM
[13] = tested on: Micrococcus luteus DMST 15503; assay: Antimicrobial MIC, 2-fold serial dilution; settings: for MIC (μg/mL) MT: Gram-positive, Micrococcus luteus (DMST 15503), Inactive at >128 μg/mL
[14] = tested on: Salmonella typhi DMST 22842; assay: microbe, parasite or virus in culture; format: cell-based; settings: Gram-negative; Salmonella typhi (DMST 22842); Inactive at >128 μg/mL
[15] = biological target: α-glucosidase (Saccharomyces cerevisiae, UniProt P53341); format: biochemical; settings: Inactive at >100 μM
[16] = tested on: 3T3-L1 cells; assay: in vitro; format: cell-based; settings: for toxicity to the cells: 3T3-L1 adipocyte cells, glucose consumption assay
[17] = tested on: L6 myotube cells; assay: Glucose uptake assay; format: cell-based; settings: Inactive at >100 μM
[18] = tested on: Shigella flexneri DMST 4423; assay: Antimicrobial MIC, 2-fold serial dilution; settings: for MIC (μg/mL) SF: Gram-negative, Shigella flexneri (DMST 4423), Inactive at >128 μg/mL
[19] = tested on: RAW 264.7 cells; assay: in vitro; format: cell-based; settings: MTT assay
[20] = tested on: S. aureus and MRSA; assay: Antibacterial MIC against S. aureus and MRSA; settings: Staphylococcus aureus, read-out: MIC values against S. aureus and MRSA
[21] = tested on: S. aureus and MRSA; settings: previous study; ref Innok et al., 2010; cited from earlier work
[22] = tested on: Gram-positive bacteria and fungi; assay: Antimicrobial MIC, summary over Gram-positive bacteria and fungi; settings: read-out: MIC values against Gram-positive bacteria and fungi
[23] = in vitro; format: cell-based; settings: mouse
[24] = in vitro; format: cell-based; settings: mouse; remark: listed apart in the source
[25] = LPS-stimulated NO production in RAW 264.7 cells, Inactive at >100 μM

Chain of α-glucosidase (P53341 whole entry): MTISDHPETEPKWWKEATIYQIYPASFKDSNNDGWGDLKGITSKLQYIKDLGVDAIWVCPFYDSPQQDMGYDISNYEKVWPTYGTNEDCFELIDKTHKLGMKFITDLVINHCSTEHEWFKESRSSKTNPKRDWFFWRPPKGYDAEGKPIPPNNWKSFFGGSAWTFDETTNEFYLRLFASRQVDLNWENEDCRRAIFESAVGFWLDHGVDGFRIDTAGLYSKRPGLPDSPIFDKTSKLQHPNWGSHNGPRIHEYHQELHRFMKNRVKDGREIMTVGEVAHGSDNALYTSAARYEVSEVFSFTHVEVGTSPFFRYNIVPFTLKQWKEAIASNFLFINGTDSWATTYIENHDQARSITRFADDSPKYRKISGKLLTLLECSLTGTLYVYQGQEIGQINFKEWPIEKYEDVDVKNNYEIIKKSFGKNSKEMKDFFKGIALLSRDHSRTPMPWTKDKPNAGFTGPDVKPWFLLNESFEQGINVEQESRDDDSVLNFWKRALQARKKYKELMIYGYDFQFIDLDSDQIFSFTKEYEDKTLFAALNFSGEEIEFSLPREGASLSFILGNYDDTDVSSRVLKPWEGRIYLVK
Chain of α-amylase (P00690 16-511): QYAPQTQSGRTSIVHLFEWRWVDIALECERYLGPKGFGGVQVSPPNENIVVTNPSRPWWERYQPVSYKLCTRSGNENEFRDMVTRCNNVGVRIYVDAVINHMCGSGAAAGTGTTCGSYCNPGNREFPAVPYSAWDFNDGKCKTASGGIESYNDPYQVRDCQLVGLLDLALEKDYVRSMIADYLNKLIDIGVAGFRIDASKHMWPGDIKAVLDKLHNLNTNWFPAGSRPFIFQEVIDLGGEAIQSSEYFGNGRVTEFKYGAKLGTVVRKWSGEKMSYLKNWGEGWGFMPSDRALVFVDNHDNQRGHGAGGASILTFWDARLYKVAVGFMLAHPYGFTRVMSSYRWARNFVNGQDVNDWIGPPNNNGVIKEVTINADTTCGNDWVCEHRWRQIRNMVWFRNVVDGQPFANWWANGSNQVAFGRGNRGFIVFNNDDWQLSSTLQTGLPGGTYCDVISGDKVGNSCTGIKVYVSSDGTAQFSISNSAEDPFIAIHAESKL

4′-hydroxy-6,3′,5′-triprenylisoflavanone [Compound 24]
IC50 ([1]; read-out: Glycation inhibition (IC50)): 40.5 ± 0.37 µM
MIC (μg/mL) SP [2]: 128 µg/mL
MIC (μg/mL) EC [3]: 128 µg/mL
MIC (μg/mL) STR [4]: Inactive
NO Inhibition (IC50, μM) [5, 25]: Inactive
Glucose consumption (IC50, μM) [6]: Inactive
MIC (μg/mL) MRSA [7]: 128 µg/mL
MIC (μg/mL) EF [8]: Inactive
MIC (μg/mL) SA [9]: 128 µg/mL
MIC (μg/mL) CA [10]: 128 µg/mL
MIC (μg/mL) PA ([11]; Gram-negative, Pseudomonas aeruginosa (ATCC 10145), Inactive at >128 μg/mL): 128 µg/mL
α-Amylase inhibition (IC50, μM) [12]: Inactive
MIC (μg/mL) MT [13]: Inactive
MIC (μg/mL) ST [14]: 128 µg/mL
α-Glucosidase inhibition (IC50, μM) [15]: Inactive
Cell viability of 3T3-L1 cells (%) ([16]; MTT assay): 39.7 ± 0.7%
Glucose uptake (fold) [17]: Inactive
MIC (μg/mL) SF [18]: Inactive
Cell viability raw 264.7 cells (%) [19]: 3.7 ± 0.1%

N=C(N)NN [Aminoguanidine, aminoguanidine, reference compound]
IC50 ([5]; read-out: NO Inhibition (IC50), LPS-stimulated NO production in RAW 264.7 cells, Inactive at >100 μM): 22.4 ± 0.78 µM
Cell viability raw 264.7 cells (%) [19]: 97.9 ± 0.8%

COc1ccc2c(c1CC=C(C)C)O[C@H]1c3ccc(O)cc3OC[C@@H]21 [Compound 10, sandwicensin]
Glycation inhibition (IC50, μM) [1]: Inactive
MIC [20]: 8 to 64 µg/mL (≈ 23.6 to 189 µM)
MIC values against S. aureus and MRSA (reported) [21]: 8 to 64 µg/mL
MIC ([2]; Streptococcus pyogenes, read-out: MIC (μg/mL) SP): 8 µg/mL (≈ 23.6 µM)
MIC (μg/mL) EC [3]: Inactive
MIC ([4]; Salmonella enterica, TYPHIMURIUM, read-out: MIC (μg/mL) STR): 128 µg/mL (≈ 378 µM)
NO Inhibition (IC50, μM) [5, 25]: Inactive
Glucose consumption (IC50, μM) [6]: Inactive
MIC ([7]; Staphylococcus aureus, MRSA, read-out: MIC (μg/mL) MRSA): 8 µg/mL (≈ 23.6 µM)
MIC ([8]; Enterococcus faecalis, ATCC29212, read-out: MIC (μg/mL) EF): 8 µg/mL (≈ 23.6 µM)
MIC ([9]; Staphylococcus aureus, ATCC25923, read-out: MIC (μg/mL) SA): 64 µg/mL (≈ 189 µM)
MIC [11]: 128 µg/mL (≈ 378 µM)
MIC [22]: 8 to 64 µg/mL (≈ 23.6 to 189 µM)
MIC ([13]; Micrococcus luteus, DMST15503, read-out: MIC (μg/mL) MT): 8 µg/mL (≈ 23.6 µM)
MIC (μg/mL) ST [14]: Inactive
MIC ([18]; Shigella flexneri, DMST4423, read-out: MIC (μg/mL) SF): 128 µg/mL (≈ 378 µM)

COc1c2c(cc3oc(=O)ccc13)OC(C)(C)C=C2 [Compound 26, xanthoxyletin]
Glycation inhibition (IC50, μM) [1]: Inactive
MIC (μg/mL) SP [2]: Inactive
MIC (μg/mL) EC [3]: Inactive
MIC (μg/mL) STR [4]: Inactive
NO Inhibition (IC50, μM) [5, 25]: Inactive
EC50 [6]: 33.4 ± 0.34 µM
MIC (μg/mL) MRSA [7]: Inactive
MIC (μg/mL) EF [8]: Inactive
MIC (μg/mL) SA [9]: Inactive
MIC (μg/mL) CA [10]: Inactive
MIC [11]: 128 µg/mL (≈ 496 µM)
MIC (μg/mL) MT [13]: Inactive
MIC (μg/mL) ST [14]: Inactive
toxicity to the cells [16]: without toxicity to the cells
MIC (μg/mL) SF [18]: Inactive

CC1(C)C=Cc2cc(C=O)ccc2O1 [Compound 27, 2,2-dimethyl-2H-chromene-6-carboxaldehyde]
Glycation inhibition (IC50, μM) [1]: Inactive
MIC (μg/mL) SP [2]: Inactive
MIC (μg/mL) EC [3]: Inactive
MIC (μg/mL) STR [4]: Inactive
IC50 ([5]; Mus musculus, RAW264.7, read-out: NO Inhibition (IC50, μM)): 52.5 ± 0.56 µM
EC50 [6]: 29.1 ± 0.86 µM
MIC (μg/mL) MRSA [7]: Inactive
MIC (μg/mL) EF [8]: Inactive
MIC (μg/mL) SA [9]: Inactive
MIC (μg/mL) CA [10]: Inactive
MIC [11]: 128 µg/mL (≈ 680 µM)
MIC (μg/mL) MT [13]: Inactive
MIC (μg/mL) ST [14]: Inactive
toxicity to the cells [16]: without toxicity to the cells
viability [23]: 98.2 ± 1.7%
MIC (μg/mL) SF [18]: Inactive
viability [24]: 97.9 ± 1.2%

CN(C)C(=N)N=C(N)N [Metformin, metformin, reference compound]
EC50 [6]: 47.2 ± 1.17 µM
viability [23]: 96.1 ± 0.9%
viability [24]: 99.4 ± 0.6%
